From patent US4001230A, “3-(5-Nitroimidazol-2-yl)pyrazolo[3,4-d]pyrimidine compounds” (Eli Lilly and Company, priority 1975, dated 1977) come the findings set out here.

In brackets after ≈: the same amount, converted by molar mass. Like-named read-outs stand apart in the source and are kept apart here.

Assay [1] relates to P. multocida. Briefly: In vivo activity in drinking water for treatment of Pasteurella multocida infection in mice (LD50, protective index). Also noted: species or system white female mice. The following applies: observed 7 days. The procedure: A comparison of the in vivo activity of a novel compound of this invention and nitrofurazolidone (Furacin) when administered in drinking water for the treatment of Pasteurella multocida infection in mice was conducted. The novel compound of this invention used in this study was 4,5-di-hydro-4-imino-1-methyl-3-(1-methyl-5-nitroimidazol-2-yl)-5-(4-pyridylmethyl)-1H-pyrazolo[3,4-d]pyrimidine diphosphate, identified by its operating example No. 8k. The test was conducted in the following manner.
Twenty white female mice, each weighing about 15-20 g., were divided into four groups of five mice each, and the groups were each placed on water medication containing:
a. Compound 8k, 0.5 g./gal.
b. Compound 8k, 2.0 g./gal.
c. Nitrofurazolidone, 0.5 g./gal.
d. Nitrofurazolidone, 2.0 g./gal.
The groups receiving each treatment were challenged with 0.1 ml. each of a 10^-^4, 10^-^5, 10^-^6, or 10^-^7 dilution of a 16 to 20-hour broth culture of P. multocida. Untreated groups of mice were challenged with log10 dilutions of the same broth culture using 0.1 ml. of 10^-^4 through 10^-^9 dilutions. […] By subtracting the LD50 of each of the treated groups from that of the control group of mice, there was obtained a figure called the protective index.
In the table, column 1 sets forth the treatment; column 2, the LD50; and column 3 the log10 protection obtained.

Assay [2] relates to Pasteurella multocida. Briefly: Efficacy against Pasteurella multocida infections in mice when administered by injection. Format: in vivo, Female Swiss mice. The following applies: for responders at 5 mg/kg / responders at 2.5 mg/kg / responders at 1.25 mg/kg: Pasteurella multocida, ip, read-out: Survival ratio (mice surviving / mice tested) (converted); for responders at 2.5 mg/kg: 2.5 mg./kg. intraperitoneal; for responders at 1.25 mg/kg: 1.25 mg./kg. intraperitoneal. As to the method:
The efficacy of the novel compounds against Pasteurella multocida infections in mice when administered by injection was studied.
Female Swiss mice weighing from 15 to about 20 g. were used. The test compound, 5.0 mg., was weighed out and dissolved in 0.5 ml. of dimethyl sulfoxide, and this solution was added to 9.5 ml. of sodium carboxymethylcellulose suspension. Groups of five mice each were injected intraperitoneally with 0.1 ml. each of the above-prepared test composition. This preparation gave a test rate of 2.5 mg. per kilo of body weight of mouse. The compounds were tested at 1.25, 2.5, or 5.0 per kilogram of body weight of mouse, and the test preparations for the rates of 1.25 and 5.0 mg./kg. were prepared in a similar manner. Immediately after receiving the test compound, the mice were challenged using log10 dilutions of 10^-^4, 10^-^5 and 10^-^6,of a 16 to 20-hour tryptose broth culture of Pasteurella multocida at 0.1 ml. per mouse subcutaneously. Similar groups of nontreated control mice were also challenged, the challenge being administered subcutaneously. The groups of mice were observed daily for mortality and the total mortality in treated groups compared with that which occurred in the nonmedicated control groups. Each test compound is identified by the number of the example describing its preparation.
In the chart, column 1 lists the test compound; column 2, the dosage of test compound in mg./kg. of mouse body weight; column 3, the dilution of the challenge organism; and column 4, the ratio of the number of mice surviving the test at each dosage and challenge dilution to the number of mice tested at each dosage and challenge dilution, called the survival ratio.

In assay [3] the test system is Aeromonas liquefaciens. Briefly: In vitro activity against fish bacterial pathogen, standard tube dilution test (MIC). Format: cell-based. The following applies: Aeromonas hydrophila; Aeromonas liquefaciens; tryptose broth, overnight, about 37° C.; read-out: minimum inhibitory concentration (MIC). As to the method:
(§1) The in vitro activity of certain of the novel compounds of this invention against two fish bacterial pathogens was determined using tryptose broth and the standard tube dilution test system. Doubling dilutions ranging from 100.0 to 0.78 mcg./ml. of each of the test compounds were prepared in 5 ml. amounts of tryptose broth. Each tube in the series was then inoculated with one drop from a 24-hour broth culture of either Pseudomonas sp. or a strain of Aeromonas liquefaciens. The tubes were incubated overnight at about 37° C., and the minimum inhibitory concentration (MIC) determined and recorded.
(§2) Column 1 lists the test compounds identified by their operating example number; column 2 lists the MIC for Pseudomonas sp.; and column 3 lists the MIC for Aeromonas liquefaciens.

Assay [4] relates to Pseudomonas sp. Described as above. The conditions noted are these: tryptose broth, overnight, about 37° C., read-out: minimum inhibitory concentration (MIC). Format: cell-based. As to the method: as §1, §2
Assay [5] has as its system Salmonella typhimurium. Briefly: In vivo activity against Salmonella typhimurium in chicks, subcutaneous.
The test system of assay [6] is Trichomonas vaginalis. Briefly: In vivo activity against Trichomonas vaginalis.
The subject of assay [7] is Trichomonas vaginalis. Briefly: In vitro activity against Trichomonas vaginalis. Format: cell-based.
Assay [8] deals with Treponema hyodysenteriae. The experiment in a line: In vitro activity against Treponema hyodysenteriae on blood agar plates (MIC). Format: cell-based. The following applies: for MIC: Brachyspira hyodysenteriae, 96 h, blood agar plates, about 36° C., about 4 days, read-out: minimum inhibitory concentration (MIC); for inhibition of growth of the treponema: doubling dilutions 100 mcg./ml. to 0.39 mcg./ml. The procedure: A number of representative compounds, namely, 5b, 8, and 15b, were tested for their in vitro activity against Treponema hyodysenteriae. The treponema were propagated on blood agar plates. Each plate which was prepared contained 20 ml. of trypticase soy agar (Baltimore Biological Laboratory [BBL]) with 5.0 g./l. of yeast extract (Difco) and 5 percent sterile defibrinated horse blood. The plates were sterile plastic 15 × 100 mm. petri plates. Incubation was carried out at 37° C. for 4 days under anaerobic conditions using the BBL Gas Pak system.
The concentrations of test compounds in this initial test were prepared in dilutions ranging from 2000 mcg./ml. to 7.8 mcg./ml. The test procedure was carried out in the following manner. Five ml. of a twenty-fold concentration in tryptose broth (Difco) of each filter-sterilized test compound dilution was mixed in a series of flasks containing 90 ml. of melted trypticase soy agar with yeast extract. Five ml. of horse blood was then added per flask. The contents of these flasks were then used to prepare a series of blood agar plates in doubling decreasing dilutions ranging from 100 mcg./ml. to 0.39 mcg./ml.
The treponema for inoculation of these plates were obtained by adding 3.0 ml. of sterile tryptose broth to the surface of a plate on which the treponema had been propagated. A sterile cotton-tipped swab was used to loosen the treponema from the agar. […] The inoculum was spread so that it covered the surface of each plate, a bent sterile plastic pipette being used for this purpose for each plate. The plates were incubated at about 36° C. for about 4 days and then examined for growth of the treponema. The minimum inhibitory concentration (MIC) of each test compound was the concentration that prevented growth of treponema.

[9] abbreviates: 5.0 mg./kg. intraperitoneal, challenge dilution 10^-^4 subcutaneous.
[10] abbreviates: 5.0 mg./kg. intraperitoneal, challenge dilution 10^-^5 subcutaneous.
[11] abbreviates: 5.0 mg./kg. intraperitoneal, challenge dilution 10^-^6 subcutaneous.
The mark [12] stands for this setting: challenge dilution 10^-^4 subcutaneous.
The mark [13] stands for this setting: challenge dilution 10^-^5 subcutaneous.
Setting [14] is: challenge dilution 10^-^6 subcutaneous.

In the case of “5-[2-(Diethylamino)ethyl]-4,5-dihydro-4-imino-1-methyl-3-(1-methyl-5-nitroimidazol-2-yl)-1H-pyrazolo[3,4-d]-pyrimidine disulfate [Example 8i]”, the “Protective Index (log10 protection)” value in assay [1] (0.5 g./gal. in drinking water) and in assay [1] (2.0 g./gal. in drinking water) was over 2.5 each time.

Regarding `CCc1nc2c(c(-c3ncc([N+](=O)[O-])n3C)nn2C)c(=O)[nH]1` [Example 2, 6-Ethyl-1,5-dihydro-1-methyl-3-(1-methyl-5-nitroimidazol-2-yl)-4H-pyrazolo[3,4-d]pyrimidin-4-one], the responders at 5 mg/kg in assay [2] (setting [9]) was 20%; in assay [2] (setting [10]), 33.3%; in assay [2] (setting [11]), 33.3%. For the same molecule, the MIC in assay [3] and in assay [4] was 50 µg/mL (≈ 165 µM) each time. Moreover, in assay [5], the “in vivo activity against Salmonella typhimurium in chicks” value (shortened to “in vivo activity … in chicks”) is listed as “active in vivo against Salmonella typhimurium in chicks”.

With `Cn1nc(-c2ncc([N+](=O)[O-])n2C)c2c1NC(CCl)(OC(=O)CCl)NC2=O` (stereo not drawn) [Example 3, 6-(Chloromethyl)-6,7-dihydro-6-hydroxy-1-methyl-3-(1-methyl-5-nitroimidazol-2-yl)-1H-pyrazolo[3,4-d]pyrimidin-4-(5H)-one, chloroacetate ester], the “in vivo activity against Trichomonas vaginalis” value in assay [6] was “active both in vitro and in vivo against Trichomonas vaginalis”. The “in vitro activity against Trichomonas vaginalis” value (“in vitro activity” below) in assay [7] was “active both in vitro and in vivo against Trichomonas vaginalis”. Further, the responders at 2.5 mg/kg was 30% in assay [2] (setting [12]), 10% in assay [2] (setting [13]) and 20% in assay [2] (setting [14]). In addition, the responders at 5 mg/kg in assay [2] (setting [9]) is 5%; in assay [2] (setting [10]), 20%; in assay [2] (setting [11]), 25%.

Take `CN(C)CCn1cnc2c(c(-c3ncc([N+](=O)[O-])n3C)nn2C)c1=N` [Example 8, 5-[2-(Dimethylamino)ethyl]4,5-dihydro-4-imino-1-methyl-3-(1-methyl-5-nitroimidazol-2-yl)-1H-pyrazolo[3,4-d]pyrimidine]: the MIC in assay [8] is at most 1.56 µg/mL; in assay [3], 12.5 µg/mL (≈ 36.2 µM); in assay [4], 1.56 µg/mL (≈ 4.52 µM). Also, in assay [8], the “inhibition of growth of the treponema” value is “inhibited growth of the treponema at each of the levels tested”. Also, the “in vivo activity against Trichomonas vaginalis” value in assay [6] was “active both in vitro and in vivo against Trichomonas vaginalis”. The “in vitro activity” value in assay [7] is “active both in vitro and in vivo against Trichomonas vaginalis”. For the same molecule, the “Survival ratio (mice surviving / mice tested)” value in assay [2] (setting [9]) is on record as 10/10. Also, the responders at 1.25 mg/kg was 20% in assay [2] (setting [12]), 40% in assay [2] (setting [13]) and 60% in assay [2] (setting [14]). Besides, the responders at 2.5 mg/kg in assay [2] (setting [12]) is 40%; in assay [2] (setting [13]) it was 60%; in assay [2] (setting [14]), 100%. Besides, the responders at 5 mg/kg in assay [2] (setting [10]) and in assay [2] (setting [11]) was 100% throughout. For the same molecule, the “in vivo activity … in chicks” value in assay [5] is listed as “active in vivo against Salmonella typhimurium in chicks”.

As for `CN(C)CCCn1cnc2c(c(-c3ncc([N+](=O)[O-])n3C)nn2C)c1=N` [Example 10, 5-[3-(Dimethylamino)propyl]-4,5-dihydro-4-imino-1-methyl-3-(1-methyl-5-nitroimidazol-2-yl)-1H-pyrazolo[3,4-d]pyrimidine], the “in vivo activity against Trichomonas vaginalis” value in assay [6] was “active both in vitro and in vivo against Trichomonas vaginalis”. For the same molecule, the “in vitro activity” value in assay [7] was “active both in vitro and in vivo against Trichomonas vaginalis”. Moreover, the figures for the responders at 5 mg/kg in assay [2] (setting [9]), in assay [2] (setting [10]) and in assay [2] (setting [11]) were 100%, 80% and 100%, respectively.

On to `Cc1nc2c(c(-c3ncc([N+](=O)[O-])n3C)nn2C)c(=O)[nH]1` [Example 13, 1,5-Dihydro-1,6-dimethyl-3-(1-methyl-5-nitroimidazol-2-yl)-4H-pyrazolo[3,4-d]pyrimidin-4-one], for which the responders at 2.5 mg/kg was 20% in assay [2] (setting [12]), 20% in assay [2] (setting [13]) and 60% in assay [2] (setting [14]). For the same molecule, the responders at 5 mg/kg in assay [2] (setting [9]) was 10%; in assay [2] (setting [10]), 50%; in assay [2] (setting [11]) it was 50%. Further, the “in vivo activity … in chicks” value in assay [5] is given as “active in vivo against Salmonella typhimurium in chicks”.

As for `Cn1c([N+](=O)[O-])cnc1-c1nn(C)c2ncn(CCN3CCOCC3)c(=N)c12` [Example 15b, 4,5-Dihydro-4-imino-1-methyl-3-(1-methyl-5-nitroimidazol-2-yl)-5-(2-morpholinoethyl)-1H-pyrazolo[3,4-d]-pyrimidine diphosphate], the MIC is at most 1.56 µg/mL in assay [8], 50 µg/mL in assay [3] and 1.56 µg/mL in assay [4]. Besides, the “inhibition of growth of the treponema” value in assay [8] is recorded as “inhibited growth of the treponema at each of the levels tested”.
